From patent US20240109912A1, “TRICYCLIC PYRIMIDINES AS CYCLIN-DEPENDENT KINASE 7 (CDK7) INHIBITORS” (JANSSEN PHARMACEUTICA NV, priority 2020, published 2024)
“And” between values parts separate entries of the source, which are not always exact repeats. Equal entries are not always repeated. Where two headings read alike, the source gives them in different places.

How the values were obtained:
[1] = system: RNA polymerase II Serine 5 phosphorylation in A549 cells overexpressing CDK7 mutant (C312S); experiment: Imaging-based cellular RNA PolII Ser5 phosphorylation assay in A549 cells overexpressing CDK7-mutant (C312S); type: cell-based, human; settings: for IC50: Homo sapiens, A549, A549 cells overexpressing CDK7 mutant (C312S), read-out: CDK7_ A549 mutant hCDK7(pIC50) (converted); for CDK7_ A549 mutant hCDK7(pIC50): A549 cells overexpressing CDK7 mutant (C312S)
Method: Data were calculated and analyzed in Phaedra.
From this an IC50 value can be obtained.
In parallel this assay was performed in A549 cells overexpressing CDK7-mutant (C312S) to evaluate the effect of the covalent bond on potency and to screen for potential off-target effects. Mutation of Cysteine to Serine (C312S), a less nucleophilic amino acid, prevents CDK7 inhibitors from covalently binding to CDK7 and from inhibiting CDK7 activity in an irreversible manner. A stably transduced A549 cell pool was generated that overexpresses CDK7 mutant (C312S), but also expresses endogenous CDK7-WT. Covalent binders targeting the cysteine at position 312 will show a shift in potency in A549 cells overexpressing mutant C312S CDK7.

[2] = system: RNA polymerase II Serine 5 phosphorylation (CDK7) in A549 cells
[3] = biological target: CDK7/cyclinH/MAT1 trimeric complex (Homo sapiens (Human), UniProt P50613); experiment: In vitro CDK7 assay, potency of irreversible covalent inhibitors (kinact/KI); settings: for Ki: CDK7 (20 nM enz.) (KI, μM); for CDK7 (20 nM enz.) (kinact, s^−1) / Ki / CDK7 (20 nM enz.) (kinact/ KI, M^−1*s^−1): 20 nM enz.; for kinact: read-out: CDK7 (20 nM enz.) (kinact, s^−1), 20 nM enz.
Chain of CDK7/cyclinH/MAT1 trimeric complex (P50613 whole entry): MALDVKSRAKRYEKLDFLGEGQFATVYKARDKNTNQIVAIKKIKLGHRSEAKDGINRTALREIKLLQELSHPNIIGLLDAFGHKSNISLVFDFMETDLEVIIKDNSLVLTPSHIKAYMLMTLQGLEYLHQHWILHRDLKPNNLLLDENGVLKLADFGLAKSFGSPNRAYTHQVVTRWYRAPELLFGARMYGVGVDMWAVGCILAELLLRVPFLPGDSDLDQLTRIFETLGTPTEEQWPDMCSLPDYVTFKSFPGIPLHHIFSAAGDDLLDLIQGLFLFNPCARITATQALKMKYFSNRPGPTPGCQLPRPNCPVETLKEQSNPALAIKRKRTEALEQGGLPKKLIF
Chain of CDK7/cyclinH/MAT1 trimeric complex (P51946 whole entry partner): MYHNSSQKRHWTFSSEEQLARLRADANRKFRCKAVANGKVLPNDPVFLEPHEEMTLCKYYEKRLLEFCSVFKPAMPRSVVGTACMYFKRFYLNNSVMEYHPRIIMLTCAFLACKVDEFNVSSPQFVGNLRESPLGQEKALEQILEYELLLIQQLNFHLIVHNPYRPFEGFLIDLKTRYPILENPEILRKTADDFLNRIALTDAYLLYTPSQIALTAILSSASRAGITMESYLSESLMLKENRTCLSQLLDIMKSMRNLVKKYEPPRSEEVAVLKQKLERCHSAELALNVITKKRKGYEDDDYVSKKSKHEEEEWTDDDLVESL
Chain of CDK7/cyclinH/MAT1 trimeric complex (P51948 whole entry partner): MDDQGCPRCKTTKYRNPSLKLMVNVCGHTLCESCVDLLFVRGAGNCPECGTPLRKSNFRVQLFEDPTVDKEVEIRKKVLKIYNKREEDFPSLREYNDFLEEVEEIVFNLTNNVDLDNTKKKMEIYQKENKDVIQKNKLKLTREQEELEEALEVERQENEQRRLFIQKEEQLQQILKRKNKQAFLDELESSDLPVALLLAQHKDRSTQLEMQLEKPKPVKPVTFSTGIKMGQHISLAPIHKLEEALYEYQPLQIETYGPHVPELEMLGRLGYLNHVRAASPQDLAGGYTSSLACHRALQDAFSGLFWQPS

IC50 [1]	IC50 [2]	Compound	other results
1950 nM	< 2.45 nM	CC#CC(=O)N1CCC(N2CCC(c3cc(C)c4c(c3)Nc3ncnc(N5CCS(=O)(=O)CC5)c3[C@@H](C)O4)CC2)CC1 [compound 156]	–
–	355 nM	CC#CC(=O)N1CC[C@H](N2CC(c3cc(C)c4c(c3)Nc3ncnc(N5CCS(=O)(=O)CC5)c3[C@@H](C)O4)C2)C1 [compound 142]	CDK7_ A549 mutant hCDK7(pIC50) [1]: <5
9120 nM	< 9.77 nM	Cc1cc(C2CN([C@H]3CCN(C(=O)C#CCCN(C)C)C3)C2)cc2c1O[C@H](C)c1c(ncnc1N1CCS(=O)(=O)CC1)N2 (single isomer, unassigned) [compound 176]	–
–	269 nM	CC#CC(=O)N1CCOC([C@H]2C[C@H](c3cc(C)c4c(c3)Nc3ncnc(N5CCS(=O)(=O)CC5)c3[C@@H](C)O4)C2)C1 (single isomer, unassigned) [compound 186]	CDK7_ A549 mutant hCDK7(pIC50) [1]: <5
~8320 nM	64.6 nM	CC#CC(=O)N1CCC(N2CCC(c3cc(C)c4c(c3)Nc3ncnc(N5CCS(=O)(=O)CC5)c3CO4)CC2)C1 (stereo not drawn) [compound 152]	–
> 10000 nM	–	CC#CC(=O)N1CC(N2CCC(c3cc4c(c(C)n3)O[C@H](C)c3c(ncnc3N3CCS(=O)(=O)CC3)N4)CC2)C1 (single isomer, unassigned) [compound 139]	CDK7 (20 nM enz.) (kinact, s^−1) [3]: 6.2e-05 s⁻¹; Ki [3]: 0.135 µM and 0.0466 µM; kinact [3]: 5.63e-05 s⁻¹
5750 nM	< 9.77 nM	Cc1cc(C2CCN(C3CN(C(=O)C#CCCN(C)C)C3)CC2)cc2c1O[C@H](C)c1c(ncnc1N1CCS(=O)(=O)CC1)N2 [compound 178]	–
> 10000 nM	178 nM	[2H][C@]1(N2CC(c3cc(C)c4c(c3)Nc3ncnc(N5CCS(=O)(=O)CC5)c3[C@@H](C)O4)C2)CCN(C(=O)C#CC)C1 (single isomer, unassigned) [compound 159]	–
> 10000 nM	141 nM	[2H]C([2H])([2H])C#CC(=O)N1CC[C@H](N2CC(c3cc(C)c4c(c3)Nc3ncnc(N5CCS(=O)(=O)CC5)c3[C@@H](C)O4)C2)C1 (single isomer, unassigned) [compound 166]	–
> 10000 nM	> 10000 nM	C=CC(=O)N1CC(N2CCC(c3cc(C)c4c(c3)Nc3ncnc(N5CCC(S(C)(=O)=O)CC5)c3CO4)CC2)C1 [compound 70]	–
> 10000 nM	–	CC#CC(=O)N1CC[C@@H](N2CC(c3cc(C)c4c(c3)Nc3ncnc(N5CCS(=O)(=O)CC5)c3[C@@H](C)O4)C2)C1 [compound 130]	–
> 10000 nM	513 nM	CC#CC(=O)N1CC[C@@H](N2CC(c3cc(C)c4c(c3)Nc3ncnc(N5CCS(=O)(=O)CC5)c3CO4)C2)C1 [compound 127]	–
> 10000 nM	~56.2 nM	[2H]C([2H])([2H])C#CC(=O)N1CC(C)(N2CCC(c3cc(C)c4c(c3)Nc3ncnc(N5CCS(=O)(=O)CC5)c3[C@@H](C)O4)CC2)C1 [compound 179]	–
7760 nM	58.9 nM	Cc1cc(C2CCN(C3CN(C(=O)C#CC(C)C)C3)CC2)cc2c1O[C@H](C)c1c(ncnc1N1CCS(=O)(=O)CC1)N2 [compound 174]	–
> 10000 nM	> 10000 nM	CC#CC(=O)N1CCC([C@H]2CC[C@@H](c3cc(C)c4c(c3)Nc3ncnc(N5CCS(=O)(=O)CC5)c3[C@@H](C)O4)CC2)CC1 [compound 173]	–
> 10000 nM	55 nM	CCC#CC(=O)N1CC[C@@H](N2CC(c3cc(C)c4c(c3)Nc3ncnc(N5CCS(=O)(=O)CC5)c3[C@@H](C)O4)C2)C1 (single isomer, unassigned) [compound 167]	–
> 10000 nM	< 9.77 nM	Cc1cc(C2CCN(C3(C)CN(C(=O)C#CCCN4CCOCC4)C3)CC2)cc2c1O[C@H](C)c1c(ncnc1N1CCS(=O)(=O)CC1)N2 [compound 180]	–
> 10000 nM	186 nM	CC#CC(=O)N1CC(N2CC(c3cc(C)c4c(c3)Nc3ncnc(N5CCS(=O)(=O)CC5)c3[C@@H](C)O4)C2)C(C)(C)C1 (mixture of isomers) [compound 184]	–
> 10000 nM	< 9.77 nM	CC#CC(=O)N1CCN([C@H]2CC[C@H](c3cc(C)c4c(c3)Nc3ncnc(N5CCS(=O)(=O)CC5)c3[C@@H](C)O4)CC2)CC1 [compound 161]	–
> 10000 nM	813 nM	CC#CC(=O)N1CC(N2CC(c3cc(C)c4c(c3)Nc3ncnc(N5CCS(=O)(=O)CC5)c3CO4)C2)C1 [compound 132]	–

IC50 [1]	IC50 [2]	Compound	other results
4170 nM	< 2.45 nM	Cc1cc(C2CCN(C3CN(C(=O)C#CCN(C)C)C3)CC2)cc2c1O[C@H](C)c1c(ncnc1N1CCS(=O)(=O)CC1)N2 [compound 169]	–
> 10000 nM	–	CC#CC(=O)N1CC[C@H](N2CC(c3cc(C)c4c(c3)Nc3ncnc(N5CCS(=O)(=O)CC5)c3[C@H](C)O4)C2)C1 (single isomer, unassigned) [compound 129]	CDK7_ A549 mutant hCDK7(pIC50) [1]: <5
~10000 nM	~26.3 nM	Cc1cc(C2CCN(C3CN(C(=O)C#CCCN4CCOCC4)C3)CC2)cc2c1O[C@H](C)c1c(ncnc1N1CCS(=O)(=O)CC1)N2 [compound 175]	–
> 10000 nM	209 nM	CC#CC(=O)N1CCN([C@H]2CC[C@@H](c3cc(C)c4c(c3)Nc3ncnc(N5CCS(=O)(=O)CC5)c3[C@@H](C)O4)CC2)CC1 [compound 162]	–
> 10000 nM	513 nM	CC#CC(=O)N1CC[C@H](N2CC(c3cc(C)c4c(c3)Nc3ncnc(N5CCS(=O)(=O)CC5)c3CO4)C2)C1 [compound 126]	–
> 10000 nM	6170 nM	CC#CC(=O)N1CCOC([C@H]2C[C@@H](c3cc(C)c4c(c3)Nc3ncnc(N5CCS(=O)(=O)CC5)c3[C@@H](C)O4)C2)C1 (single isomer, unassigned) [compound 187]	–
7240 nM	< 9.77 nM	Cc1cc(C2CN([C@H]3CCN(C(=O)C#CCN(C)C)C3)C2)cc2c1O[C@H](C)c1c(ncnc1N1CCS(=O)(=O)CC1)N2 (single isomer, unassigned) [compound 170]	–
> 10000 nM	204 nM	C=CC(=O)N1CCC(N2CC(c3cc(C)c4c(c3)Nc3ncnc(N5CCS(=O)(=O)CC5)c3CO4)C2)C1 (stereo not drawn) [compound 112]	–
> 10000 nM	–	CC#CC(=O)N1CC[C@@H](N2CC(c3cc(C)c4c(c3)Nc3ncnc(N5CCS(=O)(=O)CC5)c3[C@H](C)O4)C2)C1 (single isomer, unassigned) [compound 131]	CDK7_ A549 mutant hCDK7(pIC50) [1]: <5
> 10000 nM	~380 nM	CC#CC(=O)N1CCOC([C@H]2C[C@H](c3cc(C)c4c(c3)Nc3ncnc(N5CCS(=O)(=O)CC5)c3[C@@H](C)O4)C2)C1 (single isomer, unassigned) [compound 185]	–
> 10000 nM	105 nM	[2H]C([2H])([2H])C#CC(=O)N1CC[C@@H](N2CC(c3cc(C)c4c(c3)Nc3ncnc(N5CCS(=O)(=O)CC5)c3[C@@H](C)O4)C2)C1 (single isomer, unassigned) [compound 165]	–
> 10000 nM	355 nM	CC#CC(=O)N1CCC([C@H]2CC[C@H](c3cc(C)c4c(c3)Nc3ncnc(N5CCS(=O)(=O)CC5)c3[C@@H](C)O4)CC2)CC1 [compound 172]	–
–	75.9 nM	CC#CC(=O)N1CC(N2CCC(c3cc(C)c4c(c3)Nc3ncnc(N5CCS(=O)(=O)CC5)c3[C@@H](C)O4)CC2)C1 [compound 157]	CDK7_ A549 mutant hCDK7(pIC50) [1]: 5.12
2340 nM	41.7 nM	Cc1cc(C2CCN(C3(C)CN(C(=O)C#CCN(C)C)C3)CC2)cc2c1O[C@H](C)c1c(ncnc1N1CCS(=O)(=O)CC1)N2 [compound 181]	–
> 10000 nM	~50.1 nM	CC#CC(=O)N1CC[C@@H](N2CCC(c3cc(C)c4c(c3)Nc3ncnc(N5CCS(=O)(=O)CC5)c3CO4)CC2)C1 (single isomer, unassigned) [compound 135]	–
> 10000 nM	–	C=CC(=O)N1CC[C@H](N2CCC(c3cc(C)c4c(c3)Nc3ncnc(N5CCS(=O)(=O)CC5)c3CO4)CC2)C1 (single isomer, unassigned) [compound 115]	CDK7_ A549 mutant hCDK7(pIC50) [1]: <5; CDK7 (20 nM enz.) (kinact, s^−1) [3]: 5.98e-05 s⁻¹; CDK7 (20 nM enz.) (kinact/ KI, M^−1*s^−1) [3]: 1377.97 M⁻¹ s⁻¹; Ki [3]: 0.0595 µM and 0.0434 µM; kinact [3]: 7.64e-05 s⁻¹; kinact/KI ([3]; read-out: CDK7 (20 nM enz.) (kinact/ KI, M^−1*s^−1), 20 nM enz.): 1280 M⁻¹ s⁻¹
> 10000 nM	–	CC#CC(=O)N1CC[C@H](N2CC(c3cc(C)c4c(c3)Nc3ncnc(N5CCS(=O)(=O)CC5)c3[C@@H](C)O4)C2)C1 [compound 128]	CDK7_ A549 mutant hCDK7(pIC50) [1]: <5
> 10000 nM	–	C=CC(=O)N1CC[C@@H](N2CC(c3cc(C)c4c(c3)Nc3ncnc(N5CCS(=O)(=O)CC5)c3[C@@H](C)O4)C2)C1 (single isomer, unassigned) [compound 119]	CDK7_ A549 mutant hCDK7(pIC50) [1]: 4.95; CDK7 (20 nM enz.) (kinact, s^−1) [3]: 6.1e-05 s⁻¹ and 4.27e-05 s⁻¹; CDK7 (20 nM enz.) (kinact/ KI, M^−1*s^−1) [3]: 1923.49 M⁻¹ s⁻¹ and 1433.61 M⁻¹ s⁻¹ and 1881.64 M⁻¹ s⁻¹; Ki [3]: 0.0249 µM and 0.0426 µM and 0.0227 µM; kinact [3]: 4.79e-05 s⁻¹
> 10000 nM	–	C=CC(=O)N1CC[C@H](N2CC(c3cc(C)c4c(c3)Nc3ncnc(N5CCS(=O)(=O)CC5)c3[C@@H](C)O4)C2)C1 (single isomer, unassigned) [compound 117]	CDK7_ A549 mutant hCDK7(pIC50) [1]: <5; CDK7 (20 nM enz.) (kinact, s^−1) [3]: 8.4e-05 s⁻¹ and 4.63e-05 s⁻¹; CDK7 (20 nM enz.) (kinact/ KI, M^−1*s^−1) [3]: 1546.72 M⁻¹ s⁻¹ and 2895.79 M⁻¹ s⁻¹ and 2153.89 M⁻¹ s⁻¹; Ki [3]: 0.034 µM and 0.029 µM and 0.0215 µM; kinact [3]: 5.26e-05 s⁻¹; kinact/KI ([3]; read-out: CDK7 (20 nM enz.) (kobs/[I], M^−1*s^−1), 20 nM enz.): 800 M⁻¹ s⁻¹
